Measurements reported in PMC8953583, “The Longitudinal Dividing Bacterium Candidatus Thiosymbion Oneisti Has a Natural Temperature-Sensitive FtsZ Protein with Low GTPase Activity” (International Journal of Molecular Sciences, 2022).

T1: FtsZ^TO (Candidatus Thiosymbion oneisti, UniProt I3VI34, I207M)
T1 construct: untagged, expressed from pJW17 (pET11b) in E. coli BL21(DE3) pLysS; anion-exchange purified
T1 sequence (I3VI34 1-397 I207M): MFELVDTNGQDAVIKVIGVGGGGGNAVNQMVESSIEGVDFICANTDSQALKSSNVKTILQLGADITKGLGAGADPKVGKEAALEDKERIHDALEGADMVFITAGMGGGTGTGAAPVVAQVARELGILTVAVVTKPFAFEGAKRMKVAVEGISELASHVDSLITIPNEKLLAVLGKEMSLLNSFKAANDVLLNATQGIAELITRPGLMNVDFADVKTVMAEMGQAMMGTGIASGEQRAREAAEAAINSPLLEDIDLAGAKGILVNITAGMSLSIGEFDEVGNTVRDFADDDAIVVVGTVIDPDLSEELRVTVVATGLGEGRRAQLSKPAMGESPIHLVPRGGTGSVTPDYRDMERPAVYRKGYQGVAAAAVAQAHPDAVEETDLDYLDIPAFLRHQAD

T2: FtsZ^EC (Escherichia coli, UniProt P0A9A6)
T2 construct: purified FtsZ; purification not described in main text
T2 sequence (P0A9A6 1-383): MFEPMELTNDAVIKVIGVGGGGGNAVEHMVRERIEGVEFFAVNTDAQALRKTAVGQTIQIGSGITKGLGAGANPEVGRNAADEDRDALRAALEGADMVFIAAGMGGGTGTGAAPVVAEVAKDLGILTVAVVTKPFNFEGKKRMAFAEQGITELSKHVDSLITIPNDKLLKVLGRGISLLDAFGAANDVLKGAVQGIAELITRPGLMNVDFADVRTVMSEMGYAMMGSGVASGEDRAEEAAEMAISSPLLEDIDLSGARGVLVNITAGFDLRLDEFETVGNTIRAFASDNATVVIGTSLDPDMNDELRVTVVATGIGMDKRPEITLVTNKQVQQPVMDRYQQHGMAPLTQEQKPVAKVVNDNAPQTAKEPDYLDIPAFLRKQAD


Experiments:
FtsZ^TO = biological target: T1, FtsZ^TO; assay: Malachite green phosphate release GTPase assay; assay type: biochemical; details: 1 mM GTP, HEPES buffer pH 7.5 or MES buffer pH 6.5, 50 mM KCl, 5 mM MgCl2, 28 °C; T7 loop mutant
FtsZ^EC = biological target: T2, FtsZ^EC; assay: GTPase assay (phosphate release); assay type: biochemical; details: comparison with FtsZ^TO; conditions in supplement
[1] = substrate: Nc1nc2c(ncn2[C@@H]2O[C@H](COP(=O)(O)OP(=O)(O)OP(=O)(O)O)[C@@H](O)[C@H]2O)c(=O)[nH]1; assay: Malachite green phosphate release GTPase assay, Michaelis-Menten fit; assay type: biochemical, Candidatus Thiosymbion oneisti; details: MES buffer pH 6.5, 50 mM KCl, 5 mM MgCl2, 28 °C, 5 μM FtsZ
Text: Malachite green phosphate release GTPase assay, Michaelis-Menten fit on FtsZ^TO

| Molecule | Malachite green phosphate release GTPase assay (FtsZ^TO) | GTPase assay (phosphate release) (FtsZ^EC) | Km [1] | kcat [1] |
| --- | --- | --- | --- | --- |
| Nc1nc2c(ncn2[C@@H]2O[C@H](COP(=O)(O)OP(=O)(O)OP(=O)(O)O)[C@@H](O)[C@H]2O)c(=O)[nH]1 [GTP] | Mutations I207M of the T7 loop and I273E of the H10 helix mutations reduced the GTPase | FtsZ^TO showed a low GTPase activity compared to FtsZ^EC (Figure S4a) |  |  |
| FtsZ^TO (Candidatus Thiosymbion oneisti) (protein, untagged, expressed from pJW17 (pET11b) in E. coli BL21(DE3) pLysS; anion-exchange purified) MFELVDTNGQDAVIKVIGVGGGGGNAVNQMVESSIEGVDFICANTDSQALKSSNVKTILQLGADITKGLGAGADPKVGKEAALEDKERIHDALEGADMVFITAGMGGGTGTGAAPVVAQVARELGILTVAVVTKPFAFEGAKRMKVAVEGISELASHVDSLITIPNEKLLAVLGKEMSLLNSFKAANDVLLNATQGIAELITRPGLINVDFADVKTVMAEMGQAMMGTGIASGEQRAREAAEAAINSPLLEDIDLAGAKGILVNITAGMSLSIGEFDEVGNTVRDFADDDAIVVVGTVIDPDLSEELRVTVVATGLGEGRRAQLSKPAMGESPIHLVPRGGTGSVTPDYRDMERPAVYRKGYQGVAAAAVAQAHPDAVEETDLDYLDIPAFLRHQAD |  |  | 0.55 ± 0.11 mM | 0.00817 ± 0.000833 s⁻¹ |
